Article PMC7927014, “Novel Small Molecule Hsp90/Cdc37 Interface Inhibitors Indirectly Target K-Ras-Signaling” (Cancers, 2021)

Experiments:
H-RasG12V nanoclustering = test: H-RasG12V nanoclustering-FRET (FLIM-FRET) in HEK cells; type: cell-based; details: 24 h, conglobatin A 2 μM, salinomycin 1.3 μM, CAY10585 10 μM
Protocol: In total, 80,000 HEK cells were seeded in 12-well plates containing sterilized 16-mm coverslips and 1 mL medium. The next day, the cells were transfected using jetPRIME or FuGENE HD transfection reagent. For the donor fluorophore-only samples, the cells were transfected with 500 ng mGFP-tagged RasG12V plasmid. For the nanoclustering-FRET pair samples, the cells were transfected with both the donor and acceptor constructs, i.e., pmGFP- and pmCherry- RasG12V at a plasmid ratio of 1:3, respectively, and a total of 800 ng plasmids. The next day, the cells were treated with either 0.1% DMSO vehicle control or the indicated concentrations of compounds diluted in DMEM or RPMI medium for 24 h. For the gene silencing studies, the cells were transfected with the indicated amounts of siRNAs, together with the FRET pair constructs. The plasmids and siRNA were diluted in the same jetPRIME transfection buffer, followed by the addition of jetPRIME. After 48 h of transfection, the cells were fixed in 4% paraformaldehyde for 10 to 15 min, before being mounted onto slides with Mowiol 4–88 (cat. no. 81381, Sigma-Aldrich). The lifetime of the mGFP donor fluorophore was measured using a fluorescence microscope (Zeiss AXIO Observer D1) equipped with a fluorescence lifetime imaging attachment (Lambert Instruments), as described previously in detail. The apparent FRET efficiency (Eapp) was calculated as Eapp = (1 − τDA/τD) × 100%, with the measured fluorescence lifetimes τDA of the FRET sample and the τD of the donor-only sample.

Gal3 = test: Western blotting of galectin-3; type: cell-based; details: Western blot, 24 h; K-RasG12V-transfected HEK and MDA-MB-231 cells
Protocol: The cells were trypsinized, washed with PBS, and lysed in RIPA buffer (cat no. 89900, ThermoFisher Scientific) containing protease and phosphatase inhibitors (cat. no. A32959, ThermoFisher Scientific) and 1 mM phenylmethylsulfonyl fluoride (PMSF). The cells in the RIPA buffer were placed on ice for 20 min, and were then sonicated in ice cold water for 5 min. The lysates were centrifuged at 4 °C, and their protein was quantified using a BCA kit (cat. no. 23225, ThermoFisher Scientific). Equal amounts of protein were separated by 10% SDS-PAGE, and were then transferred onto a nitrocellulose membrane (cat. no. NBA 083C001EA, Protran) using a wet transfer system (Bio-Rad) or semidry Transferblot Turbo Transfer System (Bio-Rad). After the transfer, the membranes were blocked for 30 min in 5% skimmed milk dissolved in 1× TBST, and then incubated with 1:2000 primary antibodies in 5% BSA in TBST at 4 °C overnight. […]
The next day, the membranes were washed three times in TBST for 10 min, and then incubated with secondary antibodies (1:5000) diluted in 5% skimmed milk in TBST for 1 h at RT. […] The protein bands were detected with a ChemiDoc MP instrument (Bio-Rad) after treatment with an ECL reagent (cat. no. 170-5061, BioRad). […]

HIF-1α = test: Western blotting of HIF-1α in nuclear extracts; type: cell-based; details: Western blot of nuclear extracts, 24 h; K-RasG12V-transfected HEK and MDA-MB-231 cells; conglobatin A 5 or 10 μM, 17-AAG 2 μM
Protocol: The cells in the RIPA buffer were placed on ice for 20 min, and were then sonicated in ice cold water for 5 min. […] Equal amounts of protein were separated by 10% SDS-PAGE, and were then transferred onto a nitrocellulose membrane (cat. no. NBA 083C001EA, Protran) using a wet transfer system (Bio-Rad) or semidry Transferblot Turbo Transfer System (Bio-Rad). After the transfer, the membranes were blocked for 30 min in 5% skimmed milk dissolved in 1× TBST, and then incubated with 1:2000 primary antibodies in 5% BSA in TBST at 4 °C overnight.
The next day, the membranes were washed three times in TBST for 10 min, and then incubated with secondary antibodies (1:5000) diluted in 5% skimmed milk in TBST for 1 h at RT. […] All of the antigens and molecular weights in kDa are labelled next to the blots on the figures. Uncropped Western blot data are attached as Figure S6.

[1] = set-up: method as in PMID 24927996; details: mice, 900 mg/kg; cited from earlier work
Hsp90α (N-terminal) = biological target: T1, Hsp90α (N-terminal) (Homo sapiens, UniProt P07900); test: Hsp90 N-terminal ATP-binding site competition assay (FITC-geldanamycin fluorescence polarization)
T1 construct: purchased BPS Bioscience 50298
Protocol: The reaction was initiated by adding 35 ng/μL purified recombinant Hsp90α, and was incubated at RT with slow shaking for 2 h. All of the reactions were performed in a black, low binding NUNC microtiter plate, included in the kit, and the total reaction volume was 50 μL. The enzyme control was measured without the test compound, and the enzyme background control was measured without the test compound or Hsp90α. […] All of the controls and the blank contained 10% DMSO, as did all of the samples of the test compounds. All of the samples were analyzed as duplicates. […] The blank value was subtracted from all of the other values, and the fluorescence polarization was determined as:(1) mP = ((III − I⊥)/(III+ I⊥)) × 1000 where III is the intensity of the parallel, and I┴ the intensity of the perpendicular polarized light.

| Structure (SMILES) | H-RasG12V nanoclustering-FRET (H-RasG12V nanoclustering) | Gal3 levels (Gal3) | nuclear levels of HIF-1α (HIF-1α) | acute toxicity [1] | competition with FITC-geldanamycin (ATP-pocket binding, polarization signal) (Hsp90α (N-terminal); 20 μM compound) | competition with FITC-geldanamycin (ATP-pocket binding, polarization signal) (Hsp90α (N-terminal); up to 50 μM (12.5, 25, 50 μM)) |
| --- | --- | --- | --- | --- | --- | --- |
| C/C1=C\[C@H](C)C[C@H](C)[C@H](Cc2cnco2)OC(=O)/C(C)=C/[C@H](C)C[C@H](C)[C@H](Cc2cnco2)OC1=O [conglobatin A, reference compound] | not H-RasG12V-nanoclustering | dose-dependently reduced | decreased the nuclear levels of HIF-1α | well tolerated | – | – |
| CCOc1ccc(C(=O)c2ccc(O)c(O)c2O)cc1 [×1540, 2,3,4-TRIHYDROXY-4'-ETHOXYBENZOPHENONE] | – | – | – | – | None of these four compounds displaced | did not do so |
| N=C(CSS(=O)(=O)O)NCC12CC3CC(CC(C3)C1)C2 [×6506, [({N-[(adamantan-1-yl)methyl]carbamimidoyl}methyl)sulfanyl]sulfonic acid] | – | – | – | – | None of these four compounds displaced | did not do so |
